Experimental data from PubChem BioAssay (NCI).
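Five concentrations, 48 hours, 96-well plates. GI50 marks 50% less growth. TGI is the concentration that stops growth completely.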

Columns and labels:
Assay in all cases: DTP human tumour cell line panel, 48 h
HT29 colon = tested on: HT29 colon
HOP-62 NSCLC = tested on: HOP-62 NSCLC
HCC-2998 colon = tested on: HCC-2998 colon
K-562 leukemia = tested on: K-562 leukemia
HS 578T breast = tested on: HS 578T breast
NCI-H226 lung = tested on: NCI-H226 lung
MDA-MB-435 = tested on: MDA-MB-435
CCRF-CEM leukemia = tested on: CCRF-CEM leukemia
SK-MEL-5 melanoma = tested on: SK-MEL-5 melanoma
SF-295 CNS = tested on: SF-295 CNS
U251 CNS = tested on: U251 CNS
EKVX NSCLC = tested on: EKVX NSCLC
SW-620 colon = tested on: SW-620 colon
SN12C renal = tested on: SN12C renal
NCI-H23 lung = tested on: NCI-H23 lung
BT-549 breast = tested on: BT-549 breast
SK-OV-3 ovarian = tested on: SK-OV-3 ovarian
SNB-75 CNS = tested on: SNB-75 CNS
KM12 colon = tested on: KM12 colon
MOLT-4 leukemia = tested on: MOLT-4 leukemia
UACC-257 melanoma = tested on: UACC-257 melanoma
A549 NSCLC = tested on: A549 NSCLC
SF-268 CNS = tested on: SF-268 CNS
HCT-116 colon = tested on: HCT-116 colon
M14 melanoma = tested on: M14 melanoma
PC-3 prostate = tested on: PC-3 prostate
SK-MEL-28 melanoma = tested on: SK-MEL-28 melanoma
HL-60(TB) leukemia = tested on: HL-60(TB) leukemia
MALME-3M melanoma = tested on: MALME-3M melanoma
NCI-H522 lung = tested on: NCI-H522 lung
SK-MEL-2 melanoma = tested on: SK-MEL-2 melanoma
SF-539 CNS = tested on: SF-539 CNS
NCI/ADR-RES ovarian = tested on: NCI/ADR-RES ovarian
OVCAR-5 ovarian = tested on: OVCAR-5 ovarian
TK-10 renal = tested on: TK-10 renal
MCF7 breast = tested on: MCF7 breast
HOP-92 NSCLC = tested on: HOP-92 NSCLC
ACHN renal = tested on: ACHN renal
LOX IMVI melanoma = tested on: LOX IMVI melanoma
OVCAR-4 ovarian = tested on: OVCAR-4 ovarian
OVCAR-8 ovarian = tested on: OVCAR-8 ovarian
OVCAR-3 ovarian = tested on: OVCAR-3 ovarian
RPMI-8226 leukemia = tested on: RPMI-8226 leukemia
A498 renal = tested on: A498 renal
SR leukemia = tested on: SR leukemia
T-47D breast = tested on: T-47D breast
DU-145 prostate = tested on: DU-145 prostate
IGROV1 ovarian = tested on: IGROV1 ovarian
NCI-H460 lung = tested on: NCI-H460 lung
MDA-MB-231 breast = tested on: MDA-MB-231 breast
CAKI-1 renal = tested on: CAKI-1 renal
RXF 393 renal = tested on: RXF 393 renal
HCT-15 colon = tested on: HCT-15 colon
786-0 renal = tested on: 786-0 renal
UACC-62 melanoma = tested on: UACC-62 melanoma
SNB-19 CNS = tested on: SNB-19 CNS
UO-31 renal = tested on: UO-31 renal
COLO 205 colon = tested on: COLO 205 colon

For `O=C1/C(=C/c2ccccc2F)CN(C(=O)C(Cl)Cl)C/C1=C\c1ccccc1F`, the GI50 (HT29 colon) was 271 nM, the TGI (HT29 colon) was 1060 nM and the GI50 (HOP-62 NSCLC) was 906 nM. For the same compound, the TGI (HOP-62 NSCLC) was 2440 nM, the GI50 (HCC-2998 colon) was 696 nM and the TGI (HCC-2998 colon) was 1960 nM. For the same compound, the GI50 (K-562 leukemia) was < 40 nM, the TGI (K-562 leukemia) was > 100000 nM and the GI50 (HS 578T breast) was 985 nM. For the same compound, the TGI (HS 578T breast) was 5510 nM, the GI50 (NCI-H226 lung) was 1400 nM and the TGI (NCI-H226 lung) was 6850 nM. For the same compound, the GI50 (MDA-MB-435) was 313 nM, the TGI (MDA-MB-435) was 1010 nM and the GI50 (CCRF-CEM leukemia) was 106 nM. The TGI (CCRF-CEM leukemia) was > 100000 nM, the GI50 (SK-MEL-5 melanoma) was 533 nM and the TGI (SK-MEL-5 melanoma) was 1640 nM. The GI50 (SF-295 CNS) was 391 nM, the TGI (SF-295 CNS) was 1520 nM and the GI50 (U251 CNS) was 213 nM. It also gave a TGI (U251 CNS) of 665 nM, a GI50 (EKVX NSCLC) of 451 nM and a TGI (EKVX NSCLC) of 2060 nM. For the same compound, the GI50 (SW-620 colon) was 93 nM, the TGI (SW-620 colon) was 343 nM and the GI50 (SN12C renal) was 244 nM. For the same compound, the TGI (SN12C renal) was 691 nM, the GI50 (NCI-H23 lung) was 389 nM and the TGI (NCI-H23 lung) was 1560 nM. It also gave a GI50 (BT-549 breast) of 422 nM, a TGI (BT-549 breast) of 1440 nM and a GI50 (SK-OV-3 ovarian) of 1650 nM. It also gave a TGI (SK-OV-3 ovarian) of 3280 nM, a GI50 (SNB-75 CNS) of 572 nM and a TGI (SNB-75 CNS) of 1950 nM. The GI50 (KM12 colon) was 245 nM, the TGI (KM12 colon) was 685 nM and the GI50 (MOLT-4 leukemia) was 329 nM. It also gave a GI50 (UACC-257 melanoma) of 1080 nM, a TGI (UACC-257 melanoma) of 3190 nM and a GI50 (A549 NSCLC) of 1380 nM. For the same compound, the TGI (A549 NSCLC) was 3320 nM, the GI50 (SF-268 CNS) was 916 nM and the TGI (SF-268 CNS) was 3720 nM. For the same compound, the GI50 (HCT-116 colon) was 131 nM, the TGI (HCT-116 colon) was 286 nM and the GI50 (M14 melanoma) was 387 nM. It also gave a TGI (M14 melanoma) of 1610 nM, a GI50 (PC-3 prostate) of 296 nM and a TGI (PC-3 prostate) of 1080 nM. It also gave a GI50 (SK-MEL-28 melanoma) of 477 nM, a TGI (SK-MEL-28 melanoma) of 1470 nM and a GI50 (HL-60(TB) leukemia) of 363 nM. It also gave a TGI (HL-60(TB) leukemia) of 2250 nM, a GI50 (MALME-3M melanoma) of 599 nM and a TGI (MALME-3M melanoma) of 1920 nM. It also gave a GI50 (NCI-H522 lung) of 281 nM, a TGI (NCI-H522 lung) of 1060 nM and a GI50 (SK-MEL-2 melanoma) of 1600 nM. The TGI (SK-MEL-2 melanoma) was 3620 nM, the GI50 (SF-539 CNS) was 431 nM and the TGI (SF-539 CNS) was 1780 nM. It also gave a GI50 (NCI/ADR-RES ovarian) of 342 nM, a TGI (NCI/ADR-RES ovarian) of 2640 nM and a GI50 (OVCAR-5 ovarian) of 796 nM. For the same compound, the TGI (OVCAR-5 ovarian) was 2290 nM, the GI50 (TK-10 renal) was 1610 nM and the TGI (TK-10 renal) was 3020 nM. The GI50 (MCF7 breast) was 101 nM, the TGI (MCF7 breast) was 983 nM and the GI50 (HOP-92 NSCLC) was 1530 nM. The TGI (HOP-92 NSCLC) was 3390 nM, the GI50 (ACHN renal) was 327 nM and the TGI (ACHN renal) was 1090 nM. The GI50 (LOX IMVI melanoma) was 110 nM, the TGI (LOX IMVI melanoma) was 297 nM and the GI50 (OVCAR-4 ovarian) was 526 nM. The TGI (OVCAR-4 ovarian) was 1830 nM, the GI50 (OVCAR-8 ovarian) was 313 nM and the TGI (OVCAR-8 ovarian) was 1110 nM. It also gave a GI50 (OVCAR-3 ovarian) of 319 nM, a TGI (OVCAR-3 ovarian) of 1020 nM and a GI50 (RPMI-8226 leukemia) of 83.1 nM. For the same compound, the TGI (RPMI-8226 leukemia) was 935 nM, the GI50 (A498 renal) was 1540 nM and the TGI (A498 renal) was 3140 nM. For the same compound, the GI50 (SR leukemia) was 66.5 nM, the GI50 (T-47D breast) was 710 nM and the TGI (T-47D breast) was 3970 nM. It also gave a GI50 (DU-145 prostate) of 1010 nM, a TGI (DU-145 prostate) of 2350 nM and a GI50 (IGROV1 ovarian) of 351 nM. It also gave a TGI (IGROV1 ovarian) of 1440 nM, a GI50 (NCI-H460 lung) of 550 nM and a TGI (NCI-H460 lung) of 2240 nM. It also gave a GI50 (MDA-MB-231 breast) of 404 nM, a TGI (MDA-MB-231 breast) of 1580 nM and a GI50 (CAKI-1 renal) of 986 nM. The TGI (CAKI-1 renal) was 2300 nM, the GI50 (RXF 393 renal) was 584 nM and the TGI (RXF 393 renal) was 1750 nM. For the same compound, the GI50 (HCT-15 colon) was 217 nM, the TGI (HCT-15 colon) was 694 nM and the GI50 (786-0 renal) was 666 nM. The TGI (786-0 renal) was 2000 nM, the GI50 (UACC-62 melanoma) was 378 nM and the TGI (UACC-62 melanoma) was 1080 nM. For the same compound, the GI50 (SNB-19 CNS) was 349 nM, the TGI (SNB-19 CNS) was 1460 nM and the GI50 (UO-31 renal) was 440 nM. It also gave a TGI (UO-31 renal) of 1670 nM, a GI50 (COLO 205 colon) of 711 nM and a TGI (COLO 205 colon) of 2570 nM.
